Data published in ChEMBL document CHEMBL1275550, “In vitro activity of doripenem, a carbapenem for the treatment of challenging infections caused by gram-negative bacteria, against recent clinical isolates from the United States” (2008).
Converted amounts (≈) assume the structure as drawn.

Assays:
Pseudomonas aeruginosa [1] = assay: Antimicrobial activity against Ceftazidime susceptible Pseudomonas aeruginosa by broth microdilution method; format: functional
Citrobacter [2] = assay: Antimicrobial activity against Citrobacter with nonderepressed AmpC beta-lactamsae assessed as intermediate isolate by broth microdilution method; format: functional
Proteus mirabilis [3] = assay: Antimicrobial activity against ESBL producing Proteus mirabilis assessed as susceptible isolate by broth microdilution method; format: functional
Serratia marcescens [4] = assay: Antimicrobial activity against Ceftazidime susceptible Serratia marcescens assessed as intermediate isolate by broth microdilution method; format: functional
Pseudomonas aeruginosa [5] = assay: Antimicrobial activity against Pseudomonas aeruginosa isolated from patient by broth microdilution method
Klebsiella pneumoniae [6] = assay: Antimicrobial activity against ESBL producing Klebsiella pneumoniae assessed as resistant isolate by broth microdilution method; format: functional
Acinetobacter [7] = assay: Antimicrobial activity against imipenem non-susceptible Acinetobacter by broth microdilution method; format: functional
Serratia marcescens [8] = assay: Antimicrobial activity against Ceftazidime susceptible Serratia marcescens assessed as susceptible isolate by broth microdilution method; format: functional
Pseudomonas aeruginosa [9] = assay: Antimicrobial activity against Pseudomonas aeruginosa isolated from ICU patient assessed as intermediate isolate by broth microdilution method
Escherichia coli [10] = assay: Antimicrobial activity against ESBL producing Escherichia coli assessed as susceptible isolate by broth microdilution method; format: functional
Enterobacteriaceae [11] = assay: Antimicrobial activity against ceftazidime-susceptible Enterobacteriaceae assessed as intermediate isolate by broth microdilution method; format: functional
Pseudomonas aeruginosa [12] = assay: Antimicrobial activity against imipenem susceptible Pseudomonas aeruginosa assessed as resistant isolate by broth microdilution method; format: functional
Citrobacter [13] = assay: Antimicrobial activity against Citrobacter with derepressed AmpC beta-lactamsae assessed as intermediate isolate by broth microdilution method; format: functional
Enterobacteriaceae [14] = assay: Antimicrobial activity against ceftazidime-susceptible Enterobacteriaceae assessed as susceptible isolate by broth microdilution method; format: functional
Acinetobacter [15] = assay: Antimicrobial activity against imipenem non-susceptible Acinetobacter assessed as susceptible isolate by broth microdilution method; format: functional
Pseudomonas aeruginosa [16] = assay: Antimicrobial activity against Ceftazidime non-susceptible Pseudomonas aeruginosa assessed as susceptible isolate by broth microdilution method; format: functional
Proteus mirabilis [17] = assay: Antimicrobial activity against Non-ESBL Proteus mirabilis assessed as intermediate isolate by broth microdilution method; format: functional
Pseudomonas aeruginosa [18] = assay: Antimicrobial activity against imipenem non-susceptible Pseudomonas aeruginosa assessed as intermediate isolate by broth microdilution method; format: functional
Pseudomonas aeruginosa [19] = assay: Antimicrobial activity against Pseudomonas aeruginosa isolated from ICU patient assessed as resistant isolate by broth microdilution method
Pseudomonas aeruginosa [20] = assay: Antimicrobial activity against Pseudomonas aeruginosa isolated from non-ICU patient assessed as resistant isolate by broth microdilution method
Acinetobacter [21] = assay: Antimicrobial activity against imipenem susceptible Acinetobacter assessed as susceptible isolate by broth microdilution method; format: functional
Citrobacter [22] = assay: Antimicrobial activity against Citrobacter with nonderepressed AmpC beta-lactamsae by broth microdilution method; format: functional
Proteus mirabilis [23] = assay: Antimicrobial activity against ESBL producing Proteus mirabilis by broth microdilution method; format: functional
Pseudomonas aeruginosa [24] = assay: Antimicrobial activity against imipenem non-susceptible Pseudomonas aeruginosa assessed as susceptible isolate by broth microdilution method; format: functional
Pseudomonas aeruginosa [25] = assay: Antimicrobial activity against Ceftazidime susceptible Pseudomonas aeruginosa assessed as resistant isolate by broth microdilution method; format: functional
Enterobacteriaceae [26] = assay: Antimicrobial activity against Ceftazidime non-susceptible Enterobacteriaceae assessed as susceptible isolate by broth microdilution method; format: functional
Pseudomonas aeruginosa [27] = assay: Antimicrobial activity against Pseudomonas aeruginosa isolated from non-ICU patient by broth microdilution method; format: functional
Klebsiella pneumoniae [28] = assay: Antimicrobial activity against Non-ESBL Klebsiella pneumoniae assessed as intermediate isolate by broth microdilution method; format: functional
Acinetobacter [29] = assay: Antimicrobial activity against imipenem non-susceptible Acinetobacter assessed as resistant isolate by broth microdilution method; format: functional
Klebsiella pneumoniae [30] = assay: Antimicrobial activity against ESBL producing Klebsiella pneumoniae by broth microdilution method; format: functional
Escherichia coli [31] = assay: Antimicrobial activity against ESBL producing Escherichia coli by broth microdilution method; format: functional
Escherichia coli [32] = assay: Antimicrobial activity against Non-ESBL Escherichia coli assessed as intermediate isolate by broth microdilution method; format: functional
Escherichia coli [33] = assay: Antimicrobial activity against ESBL producing Escherichia coli assessed as resistant isolate by broth microdilution method; format: functional
Escherichia coli [34] = assay: Antimicrobial activity against ESBL producing Escherichia coli assessed as intermediate isolate by broth microdilution method; format: functional
Proteus mirabilis [35] = assay: Antimicrobial activity against ESBL producing Proteus mirabilis assessed as intermediate isolate by broth microdilution method; format: functional
Enterobacteriaceae [36] = assay: Antimicrobial activity against ceftazidime-susceptible Enterobacteriaceae assessed as resistant isolate by broth microdilution method; format: functional
Serratia marcescens [37] = assay: Antimicrobial activity against Ceftazidime non-susceptible Serratia marcescens assessed as intermediate isolate by broth microdilution method; format: functional
Acinetobacter [38] = assay: Antimicrobial activity against imipenem susceptible Acinetobacter by broth microdilution method; format: functional
Enterobacteriaceae [39] = assay: Antimicrobial activity against Ceftazidime non-susceptible Enterobacteriaceae assessed as intermediate isolate by broth microdilution method; format: functional
Pseudomonas aeruginosa [40] = assay: Antimicrobial activity against Ceftazidime susceptible Pseudomonas aeruginosa assessed as intermediate isolate by broth microdilution method; format: functional
Klebsiella pneumoniae [41] = assay: Antimicrobial activity against Non-ESBL Klebsiella pneumoniae assessed as susceptible isolate by broth microdilution method; format: functional
Proteus mirabilis [42] = assay: Antimicrobial activity against Non-ESBL Proteus mirabilis by broth microdilution method; format: functional
Pseudomonas aeruginosa [43] = assay: Antimicrobial activity against imipenem susceptible Pseudomonas aeruginosa assessed as susceptible isolate by broth microdilution method; format: functional
Klebsiella pneumoniae [44] = assay: Antimicrobial activity against ESBL producing Klebsiella pneumoniae assessed as susceptible isolate by broth microdilution method; format: functional
Citrobacter [45] = assay: Antimicrobial activity against Citrobacter with derepressed AmpC beta-lactamsae assessed as susceptible isolate by broth microdilution method; format: functional
Acinetobacter [46] = assay: Antimicrobial activity against imipenem susceptible Acinetobacter assessed as intermediate isolate by broth microdilution method; format: functional
Pseudomonas aeruginosa [47] = assay: Antimicrobial activity against Pseudomonas aeruginosa isolated from non-ICU patient by broth microdilution method
Klebsiella pneumoniae [48] = assay: Antimicrobial activity against Non-ESBL Klebsiella pneumoniae by broth microdilution method; format: functional
Escherichia coli [49] = assay: Antimicrobial activity against Non-ESBL Escherichia coli assessed as susceptible isolate by broth microdilution method; format: functional
Serratia marcescens [50] = assay: Antimicrobial activity against Ceftazidime non-susceptible Serratia marcescens by broth microdilution method; format: functional
Klebsiella pneumoniae [51] = assay: Antimicrobial activity against ESBL producing Klebsiella pneumoniae assessed as intermediate isolate by broth microdilution method; format: functional
Pseudomonas aeruginosa [52] = assay: Antimicrobial activity against Pseudomonas aeruginosa isolated from ICU patient assessed as susceptible isolate by broth microdilution method
Pseudomonas aeruginosa [53] = assay: Antimicrobial activity against imipenem non-susceptible Pseudomonas aeruginosa by broth microdilution method; format: functional
Citrobacter [54] = assay: Antimicrobial activity against Citrobacter with nonderepressed AmpC beta-lactamsae assessed as susceptible isolate by broth microdilution method; format: functional
Enterobacteriaceae [55] = assay: Antimicrobial activity against Ceftazidime non-susceptible Enterobacteriaceae by broth microdilution method; format: functional
Pseudomonas aeruginosa [56] = assay: Antimicrobial activity against imipenem non-susceptible Pseudomonas aeruginosa assessed as resistant isolate by broth microdilution method; format: functional
Proteus mirabilis [57] = assay: Antimicrobial activity against Non-ESBL Proteus mirabilis assessed as susceptible isolate by broth microdilution method; format: functional
Citrobacter [58] = assay: Antimicrobial activity against Citrobacter with derepressed AmpC beta-lactamsae by broth microdilution method; format: functional
Pseudomonas aeruginosa [59] = assay: Antimicrobial activity against imipenem susceptible Pseudomonas aeruginosa assessed as intermediate isolate by broth microdilution method; format: functional
Acinetobacter [60] = assay: Antimicrobial activity against imipenem non-susceptible Acinetobacter assessed as intermediate isolate by broth microdilution method; format: functional
Serratia marcescens [61] = assay: Antimicrobial activity against Ceftazidime non-susceptible Serratia marcescens assessed as susceptible isolate by broth microdilution method; format: functional
Pseudomonas aeruginosa [62] = assay: Antimicrobial activity against Pseudomonas aeruginosa isolated from ICU patient by broth microdilution method; format: functional
Acinetobacter [63] = assay: Antimicrobial activity against imipenem susceptible Acinetobacter assessed as resistant isolate by broth microdilution method; format: functional
Pseudomonas aeruginosa [64] = assay: Antimicrobial activity against Ceftazidime non-susceptible Pseudomonas aeruginosa assessed as resistant isolate by broth microdilution method; format: functional
Pseudomonas aeruginosa [65] = assay: Antimicrobial activity against Ceftazidime susceptible Pseudomonas aeruginosa assessed as susceptible isolate by broth microdilution method; format: functional
Pseudomonas aeruginosa [66] = assay: Antimicrobial activity against Ceftazidime non-susceptible Pseudomonas aeruginosa assessed as intermediate isolate by broth microdilution method; format: functional
Enterobacteriaceae [67] = assay: Antimicrobial activity against Ceftazidime non-susceptible Enterobacteriaceae assessed as resistant isolate by broth microdilution method; format: functional

CO/N=C(\C(=O)N[C@@H]1C(=O)N2C(C(=O)[O-])=C(C[N+]3(C)CCCC3)CS[C@H]12)c1csc(N)n1
MIC50 (Pseudomonas aeruginosa [1]): 2 µg/mL (≈ 4.16 µM) | MIC90 (Pseudomonas aeruginosa [1]): 8 µg/mL (≈ 16.6 µM) | Activity (Citrobacter [2]): 0.2% | Activity (Proteus mirabilis [3]): 100% | Activity (Serratia marcescens [4]): 0% | Activity (Pseudomonas aeruginosa [5]): 8.2% | Activity (Klebsiella pneumoniae [6]): 29.5% | MIC50 (Acinetobacter [7]): 32 µg/mL (≈ 66.6 µM) | MIC90 (Acinetobacter [7]): > 32 µg/mL | Activity (Serratia marcescens [8]): 100% | Activity (Pseudomonas aeruginosa [9]): 13.7% | Activity (Escherichia coli [10]): 40% | Activity (Enterobacteriaceae [11]): 0% | Activity (Pseudomonas aeruginosa [12]): 2.2% | Activity (Citrobacter [13]): 0% | Activity (Enterobacteriaceae [14]): 99.8% | Activity (Acinetobacter [15]): 2% | Activity (Pseudomonas aeruginosa [16]): 25.5% | Activity (Proteus mirabilis [17]): 0.2% | Activity (Pseudomonas aeruginosa [18]): 16.9% | Activity (Pseudomonas aeruginosa [19]): 6.5% | Activity (Pseudomonas aeruginosa [20]): 5.1% | Activity (Acinetobacter [21]): 73.1% | MIC50 (Citrobacter [22]): 0.03 µg/mL (≈ 0.0624 µM) | MIC90 (Citrobacter [22]): 0.06 µg/mL (≈ 0.125 µM) | MIC (Proteus mirabilis [23]): 1 µg/mL (≈ 2.08 µM) | Activity (Pseudomonas aeruginosa [24]): 72.5% | Activity (Pseudomonas aeruginosa [25]): 1% | Activity (Enterobacteriaceae [26]): 82.4% | MIC50 (Pseudomonas aeruginosa [27]): 4 µg/mL (≈ 8.32 µM) | MIC90 (Pseudomonas aeruginosa [27]): 16 µg/mL (≈ 33.3 µM) | Activity (Klebsiella pneumoniae [28]): 0.2% | Activity (Acinetobacter [29]): 64.7% | MIC50 (Klebsiella pneumoniae [30]): 8 µg/mL (≈ 16.6 µM) | MIC90 (Klebsiella pneumoniae [30]): > 32 µg/mL | MIC50 (Escherichia coli [31]): 32 µg/mL (≈ 66.6 µM) | MIC90 (Escherichia coli [31]): > 32 µg/mL | Activity (Escherichia coli [32]): 0.1% | Activity (Escherichia coli [33]): 56.7% | Activity (Escherichia coli [34]): 3.3% | Activity (Proteus mirabilis [35]): 0% | Activity (Enterobacteriaceae [36]): 0.1% | Activity (Serratia marcescens [37]): 10% | MIC50 (Acinetobacter [38]): 4 µg/mL (≈ 8.32 µM) | MIC90 (Acinetobacter [38]): 32 µg/mL (≈ 66.6 µM) | Activity (Enterobacteriaceae [39]): 5.6% | Activity (Pseudomonas aeruginosa [40]): 3.8% | Activity (Klebsiella pneumoniae [41]): 99.7% | MIC50 (Proteus mirabilis [42]): 0.03 µg/mL (≈ 0.0624 µM) | MIC90 (Proteus mirabilis [42]): 0.06 µg/mL (≈ 0.125 µM) | Activity (Pseudomonas aeruginosa [43]): 90.7% | Activity (Klebsiella pneumoniae [44]): 68.2% | Activity (Citrobacter [45]): 100% | Activity (Acinetobacter [46]): 11.8% | Activity (Pseudomonas aeruginosa [47]): 86.8% | MIC50 (Klebsiella pneumoniae [48]): 0.03 µg/mL (≈ 0.0624 µM) | MIC90 (Klebsiella pneumoniae [48]): 0.06 µg/mL (≈ 0.125 µM) | Activity (Escherichia coli [49]): 99.8% | MIC50 (Serratia marcescens [50]): 4 µg/mL (≈ 8.32 µM) | MIC90 (Serratia marcescens [50]): 16 µg/mL (≈ 33.3 µM) | Activity (Klebsiella pneumoniae [51]): 2.3% | Activity (Pseudomonas aeruginosa [52]): 79.9% | MIC50 (Pseudomonas aeruginosa [53]): 8 µg/mL (≈ 16.6 µM) | MIC90 (Pseudomonas aeruginosa [53]): 32 µg/mL (≈ 66.6 µM) | Activity (Citrobacter [54]): 99.6% | MIC50 (Enterobacteriaceae [55]): 2 µg/mL (≈ 4.16 µM) | MIC90 (Enterobacteriaceae [55]): 32 µg/mL (≈ 66.6 µM) | Activity (Pseudomonas aeruginosa [56]): 10.6% | Activity (Proteus mirabilis [57]): 99.7% | MIC50 (Citrobacter [58]): 1 µg/mL (≈ 2.08 µM) | MIC90 (Citrobacter [58]): 2 µg/mL (≈ 4.16 µM) | Activity (Pseudomonas aeruginosa [59]): 7% | Activity (Acinetobacter [60]): 33.3% | Activity (Serratia marcescens [61]): 80% | MIC50 (Pseudomonas aeruginosa [62]): 4 µg/mL (≈ 8.32 µM) | MIC90 (Pseudomonas aeruginosa [62]): 16 µg/mL (≈ 33.3 µM) | Activity (Acinetobacter [63]): 15.1% | Activity (Pseudomonas aeruginosa [64]): 26.4% | Activity (Pseudomonas aeruginosa [65]): 95.2% | Activity (Pseudomonas aeruginosa [66]): 48.2% | Activity (Enterobacteriaceae [67]): 12%
